# In US20100281567A1, “TRANSGENIC PLANTS HAVING ALTERED LEVELS OF AROMATIC AMINO ACIDS AND METABOLITES DERIVED THEREFROM” (priority 2007, published 2010):
# Tests used:
# Assay type in all cases: in vivo, Arabidopsis thaliana
# Arabidopsis plants [1] = experiment: Effect of the tryptophan analog 5-methyl tryptophan on growth of transgenic plants; conditions: plants p17, p9 and p5 expressing 35S:PRO-TP-PheA*-3HA; 100 μM, three weeks
# Procedure: FIG. 10 illustrates the effect of tryptophan analog on transgenic plants expressing: (i) the 35S:PRO-TP-PheA*-3HA gene (p5, p9; p17); (ii) dominant mutation, resistant to tryptophan analogs due to high levels of tryptophan (5× normal) and anthranilate synthase (2× normal), amt1-1; (iii) control plants expressing an empty Ti vector (con); and (iv) wild type Arabidopsis Colombia ecotype (col). FIG. 10A: Photograph of plants growing for three weeks on zero and 100 μM 5-methyl tryptophan (5MT). FIG. 10B: Quantitative analysis of the number of seedlings whose growth was arrested by 5MT.
# To evaluate the biosynthesis level of tryptophan, the effects of tryptophan analog on the transgenic plants of the present invention and on positive-control and control plants were examined. Plants used were as follows: i) plants of the present invention transformed with the 35S:PRO-TP-PheA*-3HA construct; (ii) positive-control transgenic plants having the dominant mutation amt1-1, which are resistant to tryptophan analogs due to high levels of tryptophan (5× normal) and anthranilate synthase (2× normal), the first enzyme of tryptophan biosynthesis; (iii) control plants expressing an empty Ti vector; and (iv) wild type Arabidopsis Colombia ecotype (col). Plants were grown for three weeks on zero and 100 μM 5-methyl tryptophan (5MT).
# Arabidopsis plants [2] = experiment: Effect of the HPPD inhibitor Isoxaflutole on growth of control and transgenic Arabidopsis plants; conditions: 10 ppb Isoxaflutole in MS medium
# Procedure: Plants were grown on MS medium in the presence of 10 ppb Isoxaflutole. […] FIG. 9A: Chlorophyll content. FIG. 9B: Photograph of the plants.
# Western blot analysis was performed with anti-HA tag antibodies, in order to identify the mutated plants which are translated the chemeric gene (Stepansky A and Galili G 2003 Plant Physiol 133, 1407-1415). Additionally, T2 generation plants were examined and lines with a single insertion gene were selected based on 3:1 genetic segregation. For testing the growth of the transgenic plants producing elevated concentrations of the compounds of the invention, homozygous PheA* plants were germinated on regular Nitch medium. The 4-Hydroxy-phenylpyruvate dioxygenase (HPPD) inhibitor Isoxaflutole was used as previously described (Rippert P et al. 2004 Plant Physiol., 134:92-100).
# Tyrosine is catabolized in plants to a number of metabolites including hydroxyl-phenylpyruvate (p-HPP), homogentistic acid (HGA) and tocopherols. One of the enzymes in the Tyr catabolism pathways is 4-Hydroxy-phenylpyruvate dioxygenase (HPPD), which catalyzes the conversion of p-HPP to HGA. HGA is derived exclusively from the catabolism of tyrosine and is also a substrate for a number of other metabolites, such as tocopherols. […]
# Arabidopsis plants [3] = experiment: Sensitivity of germination to external application of phenylalanine; conditions: PheA* genotypes compared to control genotype; 4 mM phenylalanine in medium
# Procedure: FIG. 11A: Morphological phenotype of the control genotype (a, e) and the PheA* expressing genotypes p5 (b, f), p9 (c, g) and p17 (d, h). Plants were at the age of 10 days (a-d) and two months (e-f). FIG. 11B: Seeds of the above control and transgenic plants were germinated on media lacking (left) or containing (right) 4 mM Phe.
# Amino acids are generally toxic to plants when added externally at relatively high concentrations. We therefore also used this trait to further confirm that the PheA* plants overproduce phenylalanine, by testing for sensitivity to external application of phenylalanine.
smiles,measurement,setting,value
"Cc1ccc2[nH]cc(C[C@H](N)C(=O)O)c2c1 [5MT, 5-methyl tryptophan]",growth of plants,Arabidopsis plants [1],strongly inhibited
CS(=O)(=O)c1cc(C(F)(F)F)ccc1C(=O)c1cnoc1C1CC1 [Isoxaflutole],chlorotic symptoms,Arabidopsis plants [2]; control plants expressing an empty Ti plasmid,developed chlorotic symptoms
same,chlorotic symptoms,Arabidopsis plants [2]; transgenic plants expressing 35S:PRO-TP-PheA*-3HA,remained green
N[C@@H](Cc1ccccc1)C(=O)O [phenylalanine],germination,Arabidopsis plants [3],significantly inhibited
